The target of one assay is T1, hROMK (hKir1.1) (Homo sapiens, UniProt P48048).
T1 construct: expressed in transfected cells
T1 sequence (P48048 1-391): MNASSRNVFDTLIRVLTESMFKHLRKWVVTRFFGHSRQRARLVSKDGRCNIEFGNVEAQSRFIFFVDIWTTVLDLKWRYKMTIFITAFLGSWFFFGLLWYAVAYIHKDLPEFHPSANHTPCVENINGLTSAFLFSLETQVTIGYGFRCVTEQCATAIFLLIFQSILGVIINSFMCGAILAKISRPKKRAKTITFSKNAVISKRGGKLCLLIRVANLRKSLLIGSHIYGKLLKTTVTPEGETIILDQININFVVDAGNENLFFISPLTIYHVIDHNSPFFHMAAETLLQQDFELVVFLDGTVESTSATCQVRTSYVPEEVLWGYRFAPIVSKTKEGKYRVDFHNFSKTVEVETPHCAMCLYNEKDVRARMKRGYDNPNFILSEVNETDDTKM
Briefly: Thallium Flux Assay. As to conditions: HEK293 cells stably expressing hROMK (hKir1.1). It is filed as cell-based. The procedure, abridged:
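HEK293 cells stably expressing hROMK were loaded with FluxOR dye for 90 min, then incubated with compound in probenecid assay buffer plus 0.3 mM ouabain, pH 7.4, for 30 min at 23-25 °C. Flux was triggered with 3 mM thallium/0.3 mM potassium (final) and read on FLIPR-Tetra for ~10 min. IC50 was calculated against the signal blocked by 3 μM control inhibitor.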

Another assay deals with T2, Kir1.1 (ROMK1) (Homo sapiens, UniProt P48048).
T2 construct: expressed in transfected cells; expression induced with sodium butyrate
T2 sequence (P48048 1-391): T1 sequence (P48048 1-391)
Briefly: Electrophysiology Assay (whole cell voltage clamp, IonWorks Quattro). The format is cell-based. The conditions noted are these: Chinese hamster ovary cells stably expressing Kir1.1; block during voltage step to 0 mV. Here is the method: Block of Kir1.1 (ROMK1) currents was examined by whole cell voltage clamp (Hamill et. al. Pfluegers Archives 391:85-100 (1981)) using the IonWorks Quattro automated electrophysiology platform (Molecular Devices, Sunnyvale, Calif.). Chinese hamster ovary cells stably expressing Kir1.1 channels were maintained in T-75 flasks in cell culture media in a humidified 10% CO2 incubator at 37° C. Prior to an experiment, Kir1.1 expression was induced by overnight incubation with 1 mM sodium butyrate. On the day of the experiment, cells were dissociated with 2.5 mL of Versene (Invitrogen 15040-066) for approximately 6 min at 37° C. and suspended in 10 mL of bath solution containing (in mM): 150 NaCl, 10 KCl, 2.7 CaCl2, 0.5 MgCl2, 5 HEPES, pH 7.4. After centrifugation, the cell pellet was resuspended in approximately 4.0 mL of bath solution and placed in the IonWorks instrument. The intracellular solution consisted of (in mM): 80 K gluconate, 40 KCl, 20 KF, 3.2 MgCl2, 3 EGTA, 5 Hepes, pH 7.4. Electrical access to the cytoplasm was achieved by perforation in 0.13 mg/mL amphotericin B for 4 min. Amphotericin B (Sigma A-4888) was prepared as a 40 mg/mL solution in DMSO. Voltage protocols and current recordings were performed using the IonWorks HT software/hardware system. Currents were sampled at 1 kHz. No correction for liquid junction potentials was used. The test pulse, consisting of a 100 ms step to 0 mV from a holding potential of −70 mV, followed by a 100 ms voltage ramp from −70 mV to +70 mV, was applied before and after a 6 min compound incubation period. Test compounds were prepared by diluting DMSO stock solutions into the bath solution at 3× the final concentration and placed in the instrument in 96-well polypropylene plates. Current amplitudes were measured using the IonWorks software. To assess compound potency, the fractional block during the voltage step to 0 mV was calculated in Microsoft Excel (Microsoft, Redmond, Calif.), and dose-response curves were fitted with Igor Pro 4.0 (WaveMetrics, Lake Oswego, Oreg.). Normally, a control compound is included to support that the assay is giving consistent results compared to previous measurements, although the control is not required to obtain the results for the test compounds.
(In general: Patch clamp records ionic current or voltage across a cell membrane.)

As a reminder, the pIC50 is the IC50 on a negative log10 scale, so that one unit is a factor of ten.

pIC50: −log10 of the molar value.

Consider `Cc1c(CCN2CCC(NC(=O)c3ccc4c(c3)COC4=O)CC2)ccc2c1COC2=O` [Example 1, N-(1-(2-(4-Methyl-1-oxo-1,3-dihydroisobenzofuran-5-yl)ethyl)piperidin-4-yl)-1-oxo-1,3-dihydroisobenzofuran-5-carboxamide], for which the pIC50 on hROMK (hKir1.1) was 8.00; at Kir1.1 (ROMK1) it was 7.40.

With `Cc1c(CCN2CCC(NC(=O)c3ccc(F)c(C#N)c3)CC2)ccc2c1COC2=O` [Example 12, 3-Cyano-4-fluoro-N-(1-(2-(4-methyl-1-oxo-1,3-dihydroisobenzofuran-5-yl)ethyl)piperidin-4-yl)benzamide], the results for the pIC50 against hROMK (hKir1.1) and against Kir1.1 (ROMK1) were 6.00 and 6.92, respectively.

As for `Cc1c(CCN2CCC(NC(=O)c3ccc(C#N)cc3S(C)(=O)=O)CC2)ccc2c1COC2=O` [Example 29, 4-Cyano-N-(1-(2-(4-methyl-1-oxo-1,3-dihydroisobenzofuran-5-yl)ethyl)piperidin-4-yl)-2-(methylsulfonyl)benzamide], the pIC50 is 5.91 against hROMK (hKir1.1) and 6.62 at Kir1.1 (ROMK1).

Take `Cc1c([C@@H](O)CN2CCC(C)(NC(=O)c3ccc(C#N)cn3)CC2)ccc2c1COC2=O` [Example 40, (R)-5-Cyano-N-(1-(2-hydroxy-2-(4-methyl-1-oxo-1,3-dihydroisobenzofuran-5-yl)ethyl)-4-methylpiperidin-4-yl)picolinamide]: the pIC50 at hROMK (hKir1.1) was 5.88; on Kir1.1 (ROMK1), 6.20.

(Values after patent publication US9777002B2, “Inhibitors of the renal outer medullary potassium channel” (Merck Sharp & Dohme Corp., priority 2012, dated 2017).)
